{"source": "patent US20120094939A1", "about": "“ANTI-VIRAL COMPOUNDS, COMPOSITIONS AND METHODS” (priority 2007, published 2012)", "system": "Huh7/Rep-Feo HCV replicon (HCV RNA replication)", "type": "cell-based, Hepatitis C virus (strain HCV—N, genotype 1b)", "conditions": "approximately 10-50 μM, most at 33 μM; for R-CompZ, compositeZ score for reporter gene assay: Table 2 antiviral hits of DOS set, 48 hours"}
{"smiles": "CC(=O)OC[C@H]1O[C@H](CCO/N=C2/[C@H]3CCn4c(=O)n(-c5ccccc5)c(=O)n4[C@H]3[C@H](O)[C@@H]3O[C@H]23)C=C[C@@H]1OC(C)=O", "note": "[BUCMLD-B10A3]", "values": [{"measurement": "R-CompZ, compositeZ score for reporter gene assay", "result": "−4.6336"}]}
{"smiles": "Cc1cc2c(nc1C)CCCN2CC(C)O/N=C1/[C@H]2CCn3c(=O)n(-c4ccccc4)c(=O)n3[C@H]2[C@H](O)[C@@H]2O[C@H]12", "note": "(stereo partly drawn) [BUCMLD-B10A5]", "values": [{"measurement": "R-CompZ, compositeZ score for reporter gene assay", "result": "−3.0849"}]}
{"smiles": "Cc1cc(C)c(-c2cc([C@H](C)O/N=C3/[C@H]4CCn5c(=O)n(-c6ccccc6)c(=O)n5[C@H]4[C@H](O)[C@@H]4O[C@H]34)on2)c(C)c1", "note": "[BUCMLD-B10A11]", "values": [{"measurement": "R-CompZ, compositeZ score for reporter gene assay", "result": "−4.7324"}]}
{"smiles": "O=C1C2C=C(I)C(CC2OCCCCO)[C@@]12CO2", "note": "(stereo partly drawn) [SM_A5B3_2P141]", "values": [{"measurement": "R-CompZ, compositeZ score for reporter gene assay", "result": "−2.5923"}]}
{"smiles": "O=C1C2(CO)C=C(Br)C(CC2c2ccccc2)[C@@]12CO2", "note": "(stereo partly drawn) [SM_A6B5_2P100]", "values": [{"measurement": "R-CompZ, compositeZ score for reporter gene assay", "result": "−3.1341"}]}
{"smiles": "COc1cc2c(cc1OC)-c1c/c(=N\\c3c(C)cc(C)cc3C)n(C)c(=O)n1CC2", "note": "[trequinsin, reference compound]", "values": [{"measurement": "primary screen hit result (in words)", "setting": "known bioactives library", "result": "not identified as a hit"}]}
